{"source": "patent US7247294B1", "about": "“Skin lightening agents, compositions and methods” (Conopco, Inc., priority 2006, dated 2007)", "tested_on": "Melanoderm cultures", "test": "Solvable Melanin Assay on Melanoderm cultures (3-D skin model)", "format": "cell-based", "conditions": "Melanoderm cultures fed every other day for 2 weeks, controls DMSO 1.292, untreated 1.259", "description": "This experiment was carried out using Melanoderm cultures. Luminescence was measured using a chromameter to assay the degree of melanization of a 3-D skin model.\nMethod for Melanoderm Cultures\nMelanoderm cultures were obtained from MatTek Corporation, Ashland, Mass. The Melanoderm was maintained according to the manufacturer's instructions. The basal media used for the maintenance of the Melanoderm cultures was DMEM supplemented with unspecified quantities of Epidermal growth factor, Insulin, Hydrocortisone, and proprietary epidermal differentiation compounds, in addition to anti-fungal and antibiotics.\nFor the long term maintenance of the Melanoderms, the basal media was supplemented with both bFGF and a-MSH, compounds which are stimulators of melanocyte growth and melanogenesis. The cultures were fed every other day for a total of 2 weeks—fresh active preparations, prepared in DMSO or culture media, were also applied to the Melanoderms when feeding was performed. Each treatment condition was done in duplicate and digital photographs were taken of the Melanoderm cultures to assess overall pigmentation. As well, microscopic images of the Melanoderms were done to assess the cell viability of the keratinocytes and melanocytes. For further evidence that the treatments were/not cytotoxic, an LDH assay (Promega, Madison, Wis.) was performed on the supernatants from 24 hour post-treatment cultures.\nTo prepare tissues for assay:\nAfter treatment, tissues are usually frozen until completion of the experiment. Thaw tissues, a few at a time and place in D-PBS to remove excess phenol red from the culture medium and residual test article. Remove a single tissue from the insert. Blot dry and place in 1.7 ml. microfuge tube. Repeat for all samples. Add 250 ul Solvable™ (Tissue and Gel Solubilizer 0.5 M—Packard BioScience Co. Catalogue No. 6NE9100 (NEF910)). Close the tube and make sure that the tissue is completely submerged. Incubate at 60° C. overnight along with standards. In the morning, vortex the samples. Sometimes thick tissues will require additional time to complete the solution process. To prepare standard: Dissolve Melanin (Sigma cat. M 8631) in Solvable at 1 mg/ml. The solution may be warmed gently for 15 minutes at 37° C. Store solution in dark. To prepare standard curve: Prepare dilutions from the standard containing 0 ug to 250 ug of melanin in a total of 250 ul Solvable. Incubate dilutions along with samples. To read assay: Cool samples and standards. Centrifuge at 13,000 rpm for 5 minutes to pellet. Fill microwell plate (C-96) with 200 ul each of samples and standards. There is some foaming of samples when pipetted. Blow gently across the samples to break bubbles prior to reading the plate. Read plate at […]."}
{"smiles": "O=c1oc2cc(O)ccc2cc1-c1ccccc1", "note": "[7-hydroxy-3-phenylcoumarin]", "values": [{"measurement": "OD = 490 nm (melanin content)", "setting": "25 uM", "result": 1.674}, {"measurement": "OD = 490 nm (melanin content)", "setting": "50 uM", "result": 1.339}, {"measurement": "OD = 490 nm (melanin content)", "setting": "75 uM", "result": 0.849}, {"measurement": "OD = 490 nm (melanin content)", "setting": "100 uM", "result": 0.293}]}
